Measurements: patent publication US20070293484A1, “Thiophene Heteroaryl Amines” (SUGEN, INC., priority 2004, published 2007)
“And” between values parts separate entries of the source, which are not always exact repeats. Identical values can stand only once.

How the values were obtained:
[1] = molecular target: T1, GST-Flk1 (Mus musculus, UniProt P35918); test: GST-FLK-1 bioassay (ELISA, tyrosine kinase activity on poly(glu,tyr)); type: biochemical
T1 construct: GST-Flk1cd purified from sf9 recombinant baculovirus transformation (SUGEN, Inc.); host or cells: Sf9 insect cells (recombinant baculovirus)
Protocol: The assays described herein are performed in an ELISA (Enzyme-Linked Immunosorbent Sandwich Assay) format (Voller, et al., 1980, “Enzyme-Linked Immunosorbent Assay,” Manual of Clinical Immunology, 2d ed., Rose and Friedman, Am. Soc. Of Microbiology, Washington, D.C., pp. 359-371). The general procedure is as follows: a compound is introduced to cells expressing the test kinase, either naturally or recombinantly, for a selected period of time after which, if the test kinase is a receptor, a ligand known to activate the receptor is added. The cells are lysed and the lysate is transferred to the wells of an ELISA plate previously coated with a specific antibody recognizing the substrate of the enzymatic phosphorylation reaction. Non-substrate components of the cell lysate are washed away and the amount of phosphorylation on the substrate is detected with an antibody specifically recognizing phosphotyrosine compared with control cells that were not contacted with a test compound.
This assay analyzes the tyrosine kinase activity of GST-Flk1 on poly(glu,tyr) peptides.
• 1. Corning 96-well ELISA plates (Corning Catalog No. 5805-96). • 2. poly(glu,tyr) 4:1, lyophilizate (Sigma Catalog #P0275). • 3. Preparation of poly(glu,tyr)(pEY) coated assay plates: Coat 2 ug/well of poly(glu,tyr)(pEY) in 100 μL PBS, hold at room temperature for 2 hours or at 4° C. overnight. Cover plates well to prevent evaporation. • 4. PBS Buffer: for 1 L, mix 0.2 g KH2PO4, 1.15 g Na2HPO4, 0.2 g KCl and 8 g NaCl in approx. 900 ml dH2O. When all reagents have dissolved, adjust the pH to 7.2 with HCl. Bring total volume to 1 L with dH2O. • 5. PBST Buffer: to 1 L of PBS Buffer, add 1.0 ml Tween-20. • 6. TBB—Blocking Buffer: for 1 L, mix 1.21 g TRIS, 8.77 g NaCl, 1 ml TWEEN-20 in approximately 900 ml dH2O. Adjust pH to 7.2 with HCl. Add 10 g BSA, stir to dissolve. Bring total volume to 1 L with dH2O. Filter to remove particulate matter. • 7. 1% BSA in PBS: To make a 1× working solution, add 10 g BSA to approx. 990 ml PBS buffer, stir to dissolve. Adjust total volume to 1 L with PBS buffer, filter to remove particulate matter. • 8. 50 mM Hepes pH 7.5. • 9. GST-Flk1cd purified from sf9 recombinant baculovirus transformation (SUGEN, Inc.). • 10. 4% DMSO in dH2O. • 11. 10 mMATP in dH2O. • 12. 40 mM MnCl2 • 13. Kinase Dilution Buffer (KDB): mix 10 ml Hepes (pH 7.5), 1 ml 5M NaCl, 40 μL 100 mM sodium orthovanadate and 0.4 ml of 5% BSA in dH2O with 88.56 ml dH2O. • 14. NUNC 96-well V bottom polypropylene plates, Applied Scientific Catalog #AS-72092 • 15. EDTA: mix 14.12 g ethylenediaminetetraacetic acid (EDTA) to approx. 70 ml dH2O. Add 10 N NaOH until EDTA dissolves. Adjust pH to 8.0. Adjust total volume to 100 ml with dH2O. • 16. 1^0 Antibody Dilution Buffer: mix 10 ml of 5% BSA in PBS buffer with 89.5 ml TBST. • 17. Anti-phosphotyrosine monoclonal antibody conjugated to horseradish peroxidase (PY99 HRP, Santa Cruz Biotech). • 18. 2,2′-Azinobis(3-ethylbenzthiazoline-6-sulfonic acid (ABTS, Moss, Cat. No. ABST). • 19. 10% SDS. Procedure: • 1. Coat Corning 96-well ELISA plates with 2 μg of polyEY peptide in sterile PBS as described in step 3 of Materials and Reagents. • 2. Remove unbound liquid from wells by inverting plate. Wash once with TBST. Pat the plate on a paper towel to remove excess liquid. • 3. Add 100 μl of 1% BSA in PBS to each well. Incubate, with shaking, for 1 hr. at room temperature. • 4. Repeat step 2. • 5. Soak wells with 50 mM HEPES (pH7.5) (150 μl/well). • 6. Dilute test compound with dH2O/4% DMSO to 4 times the desired final assay concentration in 96-well polypropylene plates. • 7. Add 25 μl diluted test compound to ELISA plate. In control wells, place 25 μl of dH2O/4% DMSO. • 8. Add 25 μl of 40 mM MnCl2 with 4×ATP (2 μM) to each well. • 9. Add 25 μl 0.5M EDTA to negative control wells. • 10. Dilute GST-Flk1 to 0.005 μg (5 ng)/well with KDB. • 11. Add 50 μl of diluted enzyme to each well. • 12. Incubate, with shaking, for 15 minutes at room temperature. • 13. […]

[2] = molecular target: T2, PDGFR (Homo sapiens, UniProt P09619); test: PDGFR bioassay (ELISA, in vitro kinase activity); type: biochemical; conditions: PDGFR-β expressing NIH 3T3 cell lysate; read-out: IC50 (μM) PDGF-R
T2 construct: SUGEN, Inc; host or cells: NIH 3T3 cell lysate; receptor captured on plate with monoclonal anti-PDGFR antibody 28D4C10
T2 sequence (P09619 33-1106, species assumed): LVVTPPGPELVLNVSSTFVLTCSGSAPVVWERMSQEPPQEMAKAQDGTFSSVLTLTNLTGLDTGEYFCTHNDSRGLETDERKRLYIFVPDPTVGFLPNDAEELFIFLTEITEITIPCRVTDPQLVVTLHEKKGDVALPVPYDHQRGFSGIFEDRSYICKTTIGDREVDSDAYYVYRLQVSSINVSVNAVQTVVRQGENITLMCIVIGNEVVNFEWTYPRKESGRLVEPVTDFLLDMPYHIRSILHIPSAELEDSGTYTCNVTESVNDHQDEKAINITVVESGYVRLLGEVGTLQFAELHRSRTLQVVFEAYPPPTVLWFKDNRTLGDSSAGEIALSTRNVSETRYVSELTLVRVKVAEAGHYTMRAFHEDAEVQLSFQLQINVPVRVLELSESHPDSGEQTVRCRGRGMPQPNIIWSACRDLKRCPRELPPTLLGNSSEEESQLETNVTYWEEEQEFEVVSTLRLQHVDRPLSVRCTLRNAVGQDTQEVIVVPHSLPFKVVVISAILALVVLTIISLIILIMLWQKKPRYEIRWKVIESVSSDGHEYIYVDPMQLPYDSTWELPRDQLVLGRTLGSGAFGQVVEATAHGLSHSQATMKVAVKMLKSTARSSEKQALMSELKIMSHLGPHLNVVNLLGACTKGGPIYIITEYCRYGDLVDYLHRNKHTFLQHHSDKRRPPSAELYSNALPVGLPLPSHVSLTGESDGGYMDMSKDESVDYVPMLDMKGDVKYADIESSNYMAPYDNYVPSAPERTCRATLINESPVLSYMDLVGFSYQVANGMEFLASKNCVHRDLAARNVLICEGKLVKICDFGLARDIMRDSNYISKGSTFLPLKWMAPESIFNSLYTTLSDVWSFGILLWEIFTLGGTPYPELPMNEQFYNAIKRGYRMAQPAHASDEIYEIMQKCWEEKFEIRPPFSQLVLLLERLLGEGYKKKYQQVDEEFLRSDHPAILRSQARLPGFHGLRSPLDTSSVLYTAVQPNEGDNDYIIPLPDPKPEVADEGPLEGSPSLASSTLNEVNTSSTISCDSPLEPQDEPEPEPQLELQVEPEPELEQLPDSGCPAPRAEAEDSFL

T1 sequence (P35918 784-1345 limits assumed): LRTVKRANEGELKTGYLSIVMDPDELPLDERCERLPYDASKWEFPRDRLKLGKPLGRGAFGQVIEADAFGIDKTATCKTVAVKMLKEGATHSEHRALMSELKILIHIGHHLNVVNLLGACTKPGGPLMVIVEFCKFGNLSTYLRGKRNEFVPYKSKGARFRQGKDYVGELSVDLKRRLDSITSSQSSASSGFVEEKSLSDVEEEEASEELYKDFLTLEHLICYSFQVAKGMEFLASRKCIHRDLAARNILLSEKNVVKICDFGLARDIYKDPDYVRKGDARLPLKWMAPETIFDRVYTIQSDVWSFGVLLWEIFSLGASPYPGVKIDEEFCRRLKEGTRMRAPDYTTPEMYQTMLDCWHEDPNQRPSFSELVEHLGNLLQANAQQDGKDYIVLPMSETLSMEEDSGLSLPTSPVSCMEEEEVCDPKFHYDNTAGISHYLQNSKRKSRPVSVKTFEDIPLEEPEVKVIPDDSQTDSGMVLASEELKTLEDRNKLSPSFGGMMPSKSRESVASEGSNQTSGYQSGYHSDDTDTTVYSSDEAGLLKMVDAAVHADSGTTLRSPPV

Row | SMILES | IC50 [1] | IC50 [2]
1 | O=C(CN1CCCC1CN1CCCC1)Nc1ccc(Nc2ncc(-c3ccsc3)cn2)cc1 (stereo not drawn) [Example 22, 2-[2-(pyrrolidin-1-ylmethyl)pyrrolidin-1-yl]-N-{4-[(5-thien-3-ylpyrimidin-2-yl)amino]phenyl}acetamide] | 4.5 µM | 0.41 µM
2 | O=C(CNCCN1CCS(=O)(=O)CC1)Nc1cccc(Nc2ncc(-c3ccsc3)cn2)c1 [Example 60, 2-[2-(1,1-dioxo-1λ^6-thiomorpholin-4-yl)-ethylamino]-N-[3-(5-thiophen-3-yl-pyrimidin-2-ylamino)-phenyl]-acetamide] | 2.4 µM | 0.06 µM
3 | O=C(CN1CCC(O)CC1)Nc1ccc(Nc2ncc(-c3ccsc3)cn2)cc1 [Example 28, 2-(4-hydroxypiperidin-1-yl)-N-{4-[(5-thien-3-ylpyrimidin-2-yl)amino]phenyl}acetamide] | 4.9 µM | 0.57 µM
4 | O=C(Nc1ccc(Nc2ncc(-c3ccsc3)cn2)cc1)N1CCOCC1 [Example 34, N-{4-[(5-thien-3-ylpyrimidin-2-yl)amino]phenyl}morpholine-4-carboxamide] | 4.7 µM | 1 µM
5 | c1cc(-c2cnc(Nc3ccc(N4CCOCC4)cc3)nc2)cs1 [Example 3, N-(4-morpholin-4-ylphenyl)-5-thien-3-ylpyrimidin-2-amine] | > 20 µM | 0.15 µM
6 | CN1CCN(Cc2ccc(C(=O)Nc3cccc(Nc4ncc(-c5ccsc5)cn4)c3)cc2)CC1 [Example 11, 4-[(4-methylpiperazin-1-yl)methyl]-N-{3-[(5-thien-3-ylpyrimidin-2-yl)amino]phenyl}benzamide] | 0.73 µM | 0.22 µM
7 | O=C(CN1CCOCC1)Nc1ccc(Nc2ncc(-c3ccsc3)cn2)cc1 [Example 26, 2-morpholin-4-yl-N-{4-[(5-thien-3-ylpyrimidin-2-yl)amino]phenyl}acetamide] | 5.6 µM | 1.1 µM
8 | O=C(Nc1ccc(Nc2ncc(-c3ccsc3)cn2)cc1)N1CCC(N2CCCC2)CC1 [Example 30, 4-pyrrolidin-1-yl-N-{4-[(5-thien-3-ylpyrimidin-2-yl)amino]phenyl}piperidine-1-carboxamide] | 6.2 µM | 0.5 µM
9 | COc1ccc(NC(=O)Nc2ncc(-c3ccsc3)cn2)cc1 [Example 9, N-(4-methoxyphenyl)-N′-(5-thien-3-ylpyrimidin-2-yl)urea] | > 20 µM | > 20 µM
10 | Oc1ccc(Nc2ncc(-c3cccs3)cn2)cc1 [Example 15, 4-(5-thiophen-2-yl-pyrimidin-2-ylamino)-phenol] | 4.61 µM | 1.7 µM
11 | O=C(O)c1cccc(Nc2ncc(-c3cccs3)cn2)c1 [Example 17, 3-[(5-thien-2-ylpyrimidin-2-yl)amino]benzoic acid] | > 20 µM | 15.2 µM
12 | O=C(CNCCN1CCOCC1)Nc1ccc(Nc2ncc(-c3ccsc3)cn2)cc1 [Example 25, 2-(2-morpholinoethylamino)-N-(4-(5-(thiophen-3-yl)pyrimidin-2-ylamino)phenyl)acetamide] | 5.4 µM | 0.47 µM
13 | O=C(Nc1ccccc1)c1cccc(Nc2ncc(-c3cccs3)cn2)c1 [Example 18, N-phenyl-3-[(5-thien-2-ylpyrimidin-2-yl)amino]benzamide] | > 20 µM | > 20 µM
14 | CCN(CC)CC(=O)Nc1cccc(Nc2cnc(-c3ccsc3)cn2)c1 [Example 41, N-(3-(5-(thiophen-3-yl)pyrazin-2-ylamino)phenyl)-2-(diethylamino)acetamide] | > 20 µM | > 20 µM
15 | O=C(Nc1ccc(F)cc1)Nc1ncc(-c2ccsc2)cn1 [Example 10, N-(4-fluorophenyl)-N′-(5-thien-3-ylpyrimidin-2-yl)urea] | > 20 µM | > 20 µM
16 | O=C(NCCN1CCOCC1)Nc1ccc(Nc2ncc(-c3ccsc3)cn2)cc1 [Example 31, N-(2-morpholin-4-ylethyl)-N′-{4-[(5-thien-3-ylpyrimidin-2-yl)amino]phenyl}urea] | 5.2 µM | 0.78 µM

More lines, now with the values ahead:

Row | IC50 [1] | IC50 [2] | SMILES
17 | 2.4 µM | 0.09 µM | O=C(CNCCN1CCOCC1)Nc1cccc(Nc2ncc(-c3ccsc3)cn2)c1 [Example 56, 2-(2-morpholin-4-yl-ethylamino)-N-[3-(5-thiophen-3-yl-pyrimidin-2-ylamino)-phenyl]-acetamide]
18 | 9.86 µM | 0.44 µM | CC(=O)Nc1ccc(Nc2ncc(-c3cccs3)cn2)cc1 [Example 13, N-[4-(5-thien-2-ylpyrimidin-2-ylamino]phenyl]acetamide]
19 | 4.14 µM | 0.55 µM | Nc1ccc(Nc2ncc(-c3ccsc3)cn2)cc1 [Example 8, N-(5-thien-3-ylpyrimidin-2-yl)benzene-1,4-diamine]
20 | > 20 µM | 0.55 µM | COc1ccc(Nc2ncc(-c3ccsc3)cn2)cc1 [Example 5, N-(4-methoxyphenyl)-5-thien-3-ylpyrimidin-2-amine]
21 | 16.2 µM | 7.39 µM | O=C(O)c1cccc(Nc2ncc(-c3ccsc3)cn2)c1 [Example 7, 3-[(5-thien-3-ylpyrimidin-2-yl)amino]benzoic acid]
22 | 2.5 µM and 4 µM | 0.08 µM and 0.43 µM | CN1CCN(CCNCC(=O)Nc2cccc(Nc3ncc(-c4ccsc4)cn3)c2)CC1 [Example 58, 2-[2-(4-methyl-piperazin-1-yl)-ethylamino]-N-[3-(5-thiophen-3-yl-pyrimidin-2-ylamino)-phenyl]-acetamide]
23 | 2.8 µM | 0.2 µM | O=C(CN1CCCC1)Nc1cccc(Nc2ncc(-c3ccsc3)cn2)c1 [Example 62, 2-pyrrolidin-1-yl-N-[3-(5-thiophen-3-yl-pyrimidin-2-ylamino)-phenyl]-acetamide]
24 | 3.5 µM | 0.66 µM | CC(=O)Nc1cccc(Nc2ncc(-c3ccsc3)cn2)c1 [Example 36, N-{3-[(5-thien-3-ylpyrimidin-2-yl)amino]phenyl}acetamide]
25 | 4.5 µM | 0.52 µM | Oc1ccc(Nc2ncc(-c3ccsc3)cn2)cc1 [Example 1, 4-[(5-thien-3-ylpyrimidin-2-yl)amino]phenol]
26 | 2.5 µM | 0.94 µM | O=C(CN1CCOCC1)Nc1cccc(Nc2ncc(-c3ccsc3)cn2)c1 [Example 61, 2-morpholin-4-yl-N-[3-(5-thiophen-3-yl-pyrimidin-2-ylamino)-phenyl]-acetamide]
27 | 1.53 µM | 0.06 µM | Nc1cccc(Nc2ncc(-c3ccsc3)cn2)c1 [Example 6, N-(5-thien-3-ylpyrimidin-2-yl)benzene-1,3-diamine]
